Data: publication PMC10141580, “Cyclic Dichalcogenides Extend the Reach of Bioreductive Prodrugs to Harness Thiol/Disulfide Oxidoreductases: Applications to seco-Duocarmycins Targeting the Thioredoxin System” (ACS Central Science, 2023)
pIC50: −log10 of the molar value. Where “and” joins values, the source holds several entries; their conditions need not be identical. Equal values may be shown once. Read-outs that look alike come from different tables or passages of the source.

Test system: panel of 140 standard cancer cell lines
Test: ProliFiler-140 cancer cell line screen (CellTiterGlo, 72 h)
Assay type: cell-based
Conditions: for IC50: read-out: IC50 [M] (ProliFiler-140); for pIC50: read-out: IC50
Description: Incubations were performed for 72 h before automated viability readout with CellTiterGlo (Figure 8).
End of Figure S11 (part 5 of 5): ProliFiler-140 cancer cell line screening for cytotoxicity of the prodrugs.
8-data-point dose response curves from CellTiter-Glo® viability readout.
ProliFiler-140 cell line panel part V

Q: How did the “Reductive Activation Index” value (MKN-1 (Stomach)) turn out when `COc1cc2cc(C(=O)N3C[C@@H](CCl)c4c3cc(OC(=O)N(CCC(=O)N3CCN(C)CC3)[C@H]3CCSSC3)c3ccccc43)[nH]c2c(OC)c1OC` [P-SS60-CBI-TMI] was run?
A: 7.3

Q: And the IC50 (MKN-1 (Stomach))?
A: 2.1e-07 M

Q: And the “Reductive Activation Index” value (MKN-45 (Stomach))?
A: 5.36

Q: And the IC50 (MKN-45 (Stomach))?
A: 9.08e-08 M and 9.1e-08 M

Q: What about the IC50 (MOLM-13 (Blood)) of the same compound?
A: 9.1e-09 M and 9.12e-09 M

Q: And the IC50 (MOLT-4 (Blood))?
A: 1.3e-08 M and 1.29e-08 M

Q: What about the pIC50 (MOLT-4) of the same compound?
A: 7.89

Q: What about the IC50 (MV4-11 (Blood)) of the same compound?
A: 2.8e-09 M and 2.76e-09 M

Q: What about the “Reductive Activation Index” value (Mia PaCA 2 (Pancreas)) of the same compound?
A: 5.48

Q: What about the IC50 (Mia PaCA 2 (Pancreas)) of the same compound?
A: 6.84e-08 M and 6.8e-08 M

Q: And the “Reductive Activation Index” value (NALM-6 (Blood))?
A: 5.7

Q: What about the IC50 (NALM-6 (Blood)) of the same compound?
A: 9.79e-09 M and 9.8e-09 M

Q: What about the “Reductive Activation Index” value (NCI-H82 (Lung)) of the same compound?
A: 5.0

Q: And the IC50 (NCI-H82 (Lung))?
A: 1.5e-07 M and 1.49e-07 M

Q: What about the IC50 (NCI-H292 (Lung)) of the same compound?
A: 4.8e-08 M and 4.84e-08 M

Q: And the “Reductive Activation Index” value (NCI-H441 (Lung))?
A: 5.40

Q: And the IC50 (NCI-H441 (Lung))?
A: 5.44e-08 M and 5.4e-08 M

Q: And the “Reductive Activation Index” value (NCI-H838 (Lung))?
A: 6.2

Q: And the IC50 (NCI-H838 (Lung))?
A: 1.2e-07 M and 1.21e-07 M

Q: What about the “Reductive Activation Index” value (NCI-H1048 (Lung)) of the same compound?
A: 7.4

Q: And the IC50 (NCI-H1048 (Lung))?
A: 8e-09 M and 8.01e-09 M

Q: What about the IC50 (NCI-H1437 (Lung)) of the same compound?
A: 5.21e-08 M and 5.2e-08 M

Q: And the “Reductive Activation Index” value (NCI-H1563 (Lung))?
A: 8.6

Q: And the IC50 (NCI-H1563 (Lung))?
A: 2e-07 M and 1.97e-07 M

Q: And the “Reductive Activation Index” value (NCI-H1573 (Lung))?
A: 6.1

Q: And the IC50 (NCI-H1573 (Lung))?
A: 1.8e-07 M and 1.76e-07 M

Q: What about the IC50 (NCI-H1581 (Lung)) of the same compound?
A: 4.23e-08 M and 4.2e-08 M

Q: And the “Reductive Activation Index” value (NCI-H1703 (Lung))?
A: 6.7

Q: What about the IC50 (NCI-H1703 (Lung)) of the same compound?
A: 1.2e-07 M and 1.21e-07 M

Q: What about the “Reductive Activation Index” value (NCI-H1838 (Lung)) of the same compound?
A: 9.6

Q: And the IC50 (NCI-H1838 (Lung))?
A: 8.5e-08 M and 8.53e-08 M

Q: And the IC50 (NCI-H2009 (Lung))?
A: 6.17e-08 M and 6.2e-08 M

Q: And the IC50 (NCI-H2110 (Lung))?
A: 2.7e-08 M and 2.67e-08 M

Q: What about the IC50 (NCI-H2286 (Lung)) of the same compound?
A: 1.9e-08 M and 1.91e-08 M

Q: What about the “Reductive Activation Index” value (NCI-N87 (Stomach)) of the same compound?
A: 8.1

Q: What about the IC50 (NCI-N87 (Stomach)) of the same compound?
A: 1.4e-07 M and 1.41e-07 M

Q: What about the IC50 (OCI-AML3 (Blood)) of the same compound?
A: 3.3e-08 M and 3.29e-08 M

Q: What about the “Reductive Activation Index” value (OCI-AML5 (Blood)) of the same compound?
A: 3.9 and 3.93

Q: And the IC50 (OCI-AML5 (Blood))?
A: 8.6e-09 M and 8.62e-09 M

Q: What about the “Reductive Activation Index” value (OCI-LY19 (Blood)) of the same compound?
A: 3.74

Q: What about the IC50 (OCI-LY19 (Blood)) of the same compound?
A: 4.11e-09 M and 4.1e-09 M

Q: What about the “Reductive Activation Index” value (OPM-2 (Blood)) of the same compound?
A: 5.41

Q: What about the IC50 (OPM-2 (Blood)) of the same compound?
A: 1.22e-07 M and 1.2e-07 M

Q: And the “Reductive Activation Index” value (OV56 (Ovary))?
A: 3.10

Q: And the IC50 (OV56 (Ovary))?
A: 6.51e-08 M and 6.5e-08 M

Q: What about the “Reductive Activation Index” value (OVCAR-3 (Ovary)) of the same compound?
A: 8.7

Q: And the IC50 (OVCAR-3 (Ovary))?
A: 1.2e-07 M and 1.17e-07 M

Q: What about the pIC50 (OVCAR-3) of the same compound?
A: 6.92

Q: And the “Reductive Activation Index” value (OVK18 (Ovary))?
A: 4.66

Q: What about the IC50 (OVK18 (Ovary)) of the same compound?
A: 4.29e-08 M and 4.3e-08 M

Q: And the IC50 (P31/FUJ (Blood))?
A: 3.7e-08 M and 3.66e-08 M

Q: What about the “Reductive Activation Index” value (PANC-1 (Pancreas)) of the same compound?
A: 5.4

Q: What about the IC50 (PANC-1 (Pancreas)) of the same compound?
A: 2.5e-07 M and 2.53e-07 M

Q: What about the IC50 (PC3 (Prostate)) of the same compound?
A: 5.8e-08 M

Q: What about the pIC50 (PC3) of the same compound?
A: 7.24

Q: What about the IC50 (PC-9 (Lung)) of the same compound?
A: 1.7e-08 M

Q: And the “Reductive Activation Index” value (RERF-LC-Ad2 (Lung))?
A: 4.2 and 4.21

Q: What about the IC50 (RERF-LC-Ad2 (Lung)) of the same compound?
A: 1.9e-07 M and 1.86e-07 M

Q: What about the IC50 (RERF-LC-MS (Lung)) of the same compound?
A: 6.44e-08 M and 6.4e-08 M

Q: What about the IC50 (RKO (Colon)) of the same compound?
A: 4.51e-08 M and 4.5e-08 M

Q: What about the “Reductive Activation Index” value (RL95-2 (Endometrium)) of the same compound?
A: 4.84

Q: And the IC50 (RL95-2 (Endometrium))?
A: 1.54e-07 M and 1.5e-07 M

Q: What about the IC50 (RPMI 8226 (Blood)) of the same compound?
A: 3.86e-08 M and 3.9e-08 M

Q: What about the pIC50 (RPMI 8226) of the same compound?
A: 7.41

Q: What about the IC50 (SCH (Stomach)) of the same compound?
A: 5.2e-08 M and 5.16e-08 M

Q: And the “Reductive Activation Index” value (SCLC-21H (Lung))?
A: 4.91

Q: What about the IC50 (SCLC-21H (Lung)) of the same compound?
A: 3.21e-08 M and 3.2e-08 M

Q: And the “Reductive Activation Index” value (SJSA-1 (Bone))?
A: 15.99

Q: And the IC50 (SJSA-1 (Bone))?
A: 2.37e-08 M and 2.4e-08 M

Q: And the IC50 (SK-BR-3 (Breast))?
A: 7.4e-08 M and 7.39e-08 M

Q: And the IC50 (SK-ES-1 (Bone))?
A: 5.66e-09 M and 5.7e-09 M

Q: And the IC50 (SK-LU-1 (Lung))?
A: 2.7e-08 M

Q: What about the “Reductive Activation Index” value (SK-MEL-3 (Skin)) of the same compound?
A: 5.8

Q: And the IC50 (SK-MEL-3 (Skin))?
A: 1.8e-07 M and 1.77e-07 M

Q: What about the “Reductive Activation Index” value (SK-N-FI (Brain)) of the same compound?
A: 5.68

Q: What about the IC50 (SK-N-FI (Brain)) of the same compound?
A: 1.2e-07 M

Q: And the IC50 (SK-N-MC (Brain))?
A: 2.7e-09 M

Q: And the “Reductive Activation Index” value (SK-N-SH (Brain))?
A: 5.1 and 5.09

Q: And the IC50 (SK-N-SH (Brain))?
A: 1.5e-07 M and 1.46e-07 M

Q: And the IC50 (SK-OV3 (Ovary))?
A: 6.17e-08 M and 6.2e-08 M

Q: And the pIC50 (SK-OV3)?
A: 7.21

Q: What about the “Reductive Activation Index” value (SNU840 (Ovary)) of the same compound?
A: 1.83

Q: And the IC50 (SNU840 (Ovary))?
A: 3.82e-08 M and 3.8e-08 M

Q: What about the IC50 (SNU-1 (Stomach)) of the same compound?
A: 3e-08 M

Q: What about the IC50 (SNU-16 (Stomach)) of the same compound?
A: 1.23e-07 M and 1.2e-07 M

Q: And the “Reductive Activation Index” value (SNU-216 (Stomach))?
A: 6.77 and 6.8

Q: And the IC50 (SNU-216 (Stomach))?
A: 2.72e-07 M and 2.7e-07 M

Q: And the “Reductive Activation Index” value (SU-DHL-5 (Blood))?
A: 6.4

Q: And the IC50 (SU-DHL-5 (Blood))?
A: 7.8e-09 M and 7.78e-09 M

Q: And the “Reductive Activation Index” value (SW480 (Colon))?
A: 5.10

Q: What about the IC50 (SW480 (Colon)) of the same compound?
A: 6.5e-08 M

Q: And the “Reductive Activation Index” value (SW620 (Colon))?
A: 5.01

Q: And the IC50 (SW620 (Colon))?
A: 1.4e-07 M

Q: And the pIC50 (SW620)?
A: 6.85

Q: And the “Reductive Activation Index” value (SW948 (Colon))?
A: 5.26

Q: What about the IC50 (SW948 (Colon)) of the same compound?
A: 1.29e-07 M and 1.3e-07 M

Q: What about the IC50 (SW-1783 (Brain)) of the same compound?
A: 6.68e-08 M and 6.7e-08 M

Q: What about the “Reductive Activation Index” value (Saos-2 EC (Bone)) of the same compound?
A: 6.02

Q: And the IC50 (Saos-2 EC (Bone))?
A: 3.88e-08 M and 3.9e-08 M

Q: And the “Reductive Activation Index” value (SiHa (Ovary))?
A: 5.51

Q: And the IC50 (SiHa (Ovary))?
A: 1.11e-07 M and 1.1e-07 M

Q: What about the “Reductive Activation Index” value (T84 (Colon)) of the same compound?
A: 5.12 and 5.1

Q: And the IC50 (T84 (Colon))?
A: 1.77e-07 M and 1.8e-07 M

Q: And the IC50 (T98G (Brain))?
A: 8.64e-08 M and 8.6e-08 M

Q: And the “Reductive Activation Index” value (T-47D (Breast))?
A: 4.5

Q: And the IC50 (T-47D (Breast))?
A: 2.3e-07 M and 2.31e-07 M

Q: What about the pIC50 (T-47D) of the same compound?
A: 6.64

Q: And the “Reductive Activation Index” value (U2OS (Bone))?
A: 5.36

Q: What about the IC50 (U2OS (Bone)) of the same compound?
A: 2.44e-08 M and 2.4e-08 M

Q: What about the “Reductive Activation Index” value (U87MG (Brain)) of the same compound?
A: 5.4

Q: What about the IC50 (U87MG (Brain)) of the same compound?
A: 2.3e-07 M and 2.25e-07 M

Q: What about the “Reductive Activation Index” value (U118MG (Brain)) of the same compound?
A: 2.81

Q: And the IC50 (U118MG (Brain))?
A: 1.4e-07 M

Q: What about the “Reductive Activation Index” value (U251MG (Brain)) of the same compound?
A: 11

Q: What about the IC50 (U251MG (Brain)) of the same compound?
A: 1.9e-07 M and 1.88e-07 M

Q: What about the IC50 (U-266 (Blood)) of the same compound?
A: 2.23e-08 M and 2.2e-08 M

Q: What about the “Reductive Activation Index” value (U-937 (Blood)) of the same compound?
A: 4.50

Q: And the IC50 (U-937 (Blood))?
A: 1.64e-08 M and 1.6e-08 M

Q: What about the “Reductive Activation Index” value (ZR-75-1 (Breast)) of the same compound?
A: 6.4

Q: What about the IC50 (ZR-75-1 (Breast)) of the same compound?
A: 2.22e-07 M and 2.2e-07 M

Q: What about the IC50 of the same compound?
A: 1.74e-08 M and 1.7e-08 M
